Experimental data as given in patent US20110190365A1, “Insecticidal 4-phenyl-1H-pyrazoles” (Bayer Crop Science AG, priority 2008, published 2011).

experiment: log P by HPLC on a reversed-phase column (C18), EEC Directive 79/831 Annex V.A8; type: physicochemical; conditions: HCOOH
Protocol: The stated log P values were determined in accordance with EEC Directive 79/831 Annex V.A8 by HPLC (High Performance Liquid Chromatography) using a reversed-phase column (C18).

SMILES | log P (HCOOH)
Cc1cc(-n2nc(C(F)(F)F)c(-c3cc(Cl)cc(Cl)c3)c2N)ccc1C(=O)NC1CCCCC1C(F)(F)F (stereo not shown) [I-A-Q2-274] | I-A-Q2-274: log P (HCOOH): 4.95
Cc1cc(-n2nc(C(F)(F)F)c(-c3cc(Cl)cc(Cl)c3)c2N)ccc1C(=O)NC(C)c1ccccc1 (stereo not shown) [I-A-Q2-016] | I-A-Q2-016: log P (HCOOH): 4.79
Cc1cc(-n2nc(C(F)(F)F)c(I)c2N)ccc1C(=O)NCc1ccccn1 [XI-A-095] | XI-A-095: log P (HCOOH): 2.03
Cc1cc(-n2nc(C(F)(F)F)c(-c3cccc(F)c3)c2N)ccc1C(=O)NCC(F)(F)C(F)F [I-A-Q2-311] | I-A-Q2-311: log P (HCOOH): 3.27
Cc1cc(-n2nc(C(F)(F)F)c(-c3cccc(Br)c3)c2N)ccc1C(=O)NCc1ccccn1 [I-A-Q2-357] | I-A-Q2-357: log P (HCOOH): 2.72
Cc1cc(-n2nc(C)c(-c3ccc(F)cc3)c2N)ccc1C(=O)NCc1ccccn1 [I-A-Q2-367] | I-A-Q2-367: log P (HCOOH): 1.59
C[S+]([O-])c1cc(-n2nc(C(F)(F)F)c(-c3cc(Cl)cc(Cl)c3)c2N)ccc1C(=O)NCc1ccccn1 (stereo not shown) [I-A-Q2-424] | I-A-Q2-424: log P (HCOOH): 2.75
Cc1cc(-n2nc(C(F)(F)c3ccc(C(F)(F)F)cc3)c(-c3cc(Cl)cc(C(F)(F)F)c3)c2N)ccc1C(=O)NCC(F)(F)C(F)F [I-A-Q2-289] | I-A-Q2-289: log P (HCOOH): 4.95
CC(NC(=O)c1ccc(-n2nc(C(F)(F)F)c(-c3ccc(Cl)c(F)c3)c2N)cc1)C(F)(F)F (stereo not shown) [I-A-Q2-166] | I-A-Q2-166: log P (HCOOH): 3.84
Nc1c(-c2cc(F)cc(Cl)c2)c(C(F)(F)F)nn1-c1ccc(C(=O)NCC(F)(F)F)cc1 [I-A-Q2-086] | I-A-Q2-086: log P (HCOOH): 3.68
Cc1cc(-n2nc(C(F)(F)F)c(-c3cc(Cl)cc(Cl)c3)c2N)ccc1C(=O)NCc1cc(F)ccc1F [I-A-Q2-046] | I-A-Q2-046: log P (HCOOH): 4.51
Cc1cc(-n2nc(C(F)(F)F)c(-c3cc(Cl)cc(Cl)c3)c2N)ccc1C(=O)N(C)C(C)c1cccnc1 (stereo not shown) [I-A-Q2-208] | I-A-Q2-208: log P (HCOOH): 3.19
Cc1cc(-n2nc(C(F)(F)Oc3ccc(Cl)cc3)c(-c3cc(Cl)cc(C(F)(F)F)c3)c2N)ccc1C(=O)NCC(F)(F)C(F)F [I-A-Q2-294] | I-A-Q2-294: log P (HCOOH): 4.95
Cc1cc(-n2nc(C(F)(F)F)c(-c3cc(Cl)cc(Cl)c3)c2N)ccc1C(=O)N(Cc1ccccn1)C1CC1 [I-A-Q2-111] | I-A-Q2-111: log P (HCOOH): 4.17
Cc1cc(-n2nc(C(F)(F)F)c(-c3cc(Cl)cc(Cl)c3)c2N)ccc1C(=O)NC(C)c1ccncc1 (stereo not shown) [I-A-Q2-234] | I-A-Q2-234: log P (HCOOH): 2.38
Cc1cc(-n2nc(C(F)(F)F)c(-c3ccccc3Cl)c2N)ccc1C(=O)NCC(F)(F)C(F)F [I-A-Q2-308] | I-A-Q2-308: log P (HCOOH): 3.23

SMILES | log P (HCOOH)
Cc1cc(-n2nc(C(F)(F)F)c(-c3ccc(Cl)cc3Cl)c2N)ccc1C(=O)NCC(F)(F)C(F)F [I-A-Q2-305] | I-A-Q2-305: log P (HCOOH): 3.75
Cc1cc(-n2nc(C)c(-c3c(F)cccc3F)c2N)ccc1C(=O)NCc1ccccn1 [I-A-Q2-369] | I-A-Q2-369: log P (HCOOH): 1.52
Cc1cc(C)cc(-c2c(C(F)(F)F)nn(-c3ccc(C(=O)NC(C)C(F)(F)F)cc3)c2N)c1 (stereo not shown) [I-A-Q2-178] | I-A-Q2-178: log P (HCOOH): 3.89
CC(C)NC(=O)c1ccc(-n2nc(C(F)(F)F)c(-c3cc(Cl)cc(Cl)c3)c2N)cc1 [I-A-Q2-135] | I-A-Q2-135: log P (HCOOH): 4.06
CS(=O)(=O)c1cc(-n2nc(C(F)(F)F)c(-c3cc(Cl)cc(Cl)c3)c2N)ccc1C(=O)NCc1ccccn1 [I-A-Q2-425] | I-A-Q2-425: log P (HCOOH): 2.99
Cc1cc(-n2nc(C(F)(F)F)c(Cl)c2N)ccc1C(=O)O [XI-A-085] | XI-A-085: log P (HCOOH): 1.95
CSc1c(-c2cc(Cl)cc(Cl)c2)c(C(F)(F)F)nn1-c1ccc(C(=O)NCc2ccccn2)c(C)c1 [I-A-Q2-028] | I-A-Q2-028: log P (HCOOH): 4.35
CC(NC(=O)c1ccc(-n2nc(C(F)(F)F)c(-c3ccccc3Cl)c2N)cc1)C(F)(F)F (stereo not shown) [I-A-Q2-079] | I-A-Q2-079: log P (HCOOH): 3.37
CCCC(NC(=O)c1ccc(-n2nc(C(F)(F)F)c(-c3cc(Cl)cc(Cl)c3)c2N)cc1)C(F)(F)F (stereo not shown) [I-A-Q2-071] | I-A-Q2-071: log P (HCOOH): 4.95
Nc1c(-c2ccc(Br)cc2)c(C(F)(F)F)nn1-c1ccc(C(=O)NCC(F)(F)F)cc1 [I-A-Q2-189] | I-A-Q2-189: log P (HCOOH): 3.53
COC(CNC(=O)c1ccc(-n2nc(C(F)(F)F)c(-c3cc(Cl)cc(Cl)c3)c2N)cc1C)OC [I-A-Q2-224] | I-A-Q2-224: log P (HCOOH): 3.78
Cc1cc(-n2nc(C(F)(F)F)c(-c3cc(Cl)cc(Cl)c3)c2N)ccc1C(=O)NC(C)C1(Cl)CC1 (stereo not shown) [I-A-Q2-261] | I-A-Q2-261: log P (HCOOH): 4.76
Cc1cc(-n2nc(C(F)(F)F)c(-c3cc(Cl)cc(Cl)c3)c2N)ccc1C(=O)NCC(=O)N1CCOCC1 [I-A-Q2-031] | I-A-Q2-031: log P (HCOOH): 3.33
Cc1cc(-n2nc(C(F)(F)Oc3cccc(Cl)c3)c(-c3cc(Cl)cc(C(F)(F)F)c3)c2N)ccc1C(=O)NCC(F)(F)C(F)F [I-A-Q2-297] | I-A-Q2-297: log P (HCOOH): 4.95
CC(NC(=O)c1ccc(-n2nc(C(F)(F)F)c(-c3cc(Cl)cc(C(F)(F)F)c3)c2N)cc1)C(F)(F)F (stereo not shown) [I-A-Q2-095] | I-A-Q2-095: log P (HCOOH): 4.51
Cc1cc(-n2nc(C(F)(F)F)c(-c3ccc(Cl)c(F)c3)c2N)ccc1C(=O)NCC(F)(F)C(F)F [I-A-Q2-310] | I-A-Q2-310: log P (HCOOH): 3.70

same assay, conditions: HCOOH; Table 4, compounds of formula I-A-Q4

SMILES | log P (HCOOH)
Cc1nn(-c2ccc(Cl)cn2)c(N)c1-c1c(F)cccc1F [I-A-Q4-036] | I-A-Q4-036: log P (HCOOH): 3.58
Nc1c(-c2ccc(Cl)cc2Cl)c(C(F)(F)F)nn1-c1ccc(Cl)cn1 [I-A-Q4-044] | I-A-Q4-044: log P (HCOOH): 5.02
Nc1c(-c2cc(Cl)cc(C(F)(F)F)c2)c(C(F)(F)F)nn1-c1ccc(Cl)cn1 [I-A-Q4-016] | I-A-Q4-016: log P (HCOOH): 5.76

same assay, conditions: HPLC, reversed-phase C18, mobile phase with formic acid

SMILES | log P (HCOOH)
N#Cc1cc(-n2nc(C(F)(F)F)c(-c3cccc(F)c3)c2N)ccc1-n1cncn1 [I-A-Q1-042] | I-A-Q1-042: log P (HCOOH): 2.84
Nc1c(-c2cc(Cl)cc(Cl)c2)c(C(F)(F)F)nn1-c1ccc(CNC(=O)CC(F)(F)F)c(Cl)c1 [I-A-Q3-021] | I-A-Q3-021: log P (HCOOH): 4.48
Cc1ccccc1-c1c(C(F)(F)F)nn(-c2ccc(-n3cncn3)c(C#N)c2)c1N [I-A-Q1-039] | I-A-Q1-039: log P (HCOOH): 2.89
Cc1nn(-c2ccc(-n3cncn3)c(C#N)c2)c(N)c1-c1ccc(Cl)cc1 [I-A-Q1-029] | I-A-Q1-029: log P (HCOOH): 2.65
N#Cc1ccc(-c2c(C(F)(F)F)nn(-c3ccc(-n4cncn4)c(C#N)c3)c2N)cc1 [I-A-Q1-047] | I-A-Q1-047: log P (HCOOH): 2.64
Cc1nc(C)n(-c2ccc(-n3nc(C(F)(F)F)c(-c4cc(Cl)cc(Cl)c4)c3N)cc2C#N)n1 [I-A-Q1-083] | I-A-Q1-083: log P (HCOOH): 3.84
COc1cnn(-c2ccc(-n3nc(C(F)(F)F)c(-c4cc(Cl)cc(Cl)c4)c3N)cc2C#N)c1 [I-A-Q1-085] | I-A-Q1-085: log P (HCOOH): 4.45
N#Cc1cc(-n2nc(C(F)(F)F)c(-c3cc(Cl)cc(Cl)c3)c2N)ccc1-n1nc(C(F)(F)F)nc1N [I-A-Q1-093] | I-A-Q1-093: log P (HCOOH): 4.00
